Measurements published in ChEMBL document CHEMBL1201862, “PubChem BioAssay data set” (2004).
The source made the active and inactive calls.

How the values were obtained:
[1] = biological target: T1, Heat shock factor protein 1 (Mus musculus, UniProt P38532); test: decrease of HSF1-responsive luciferase luminescence – cell-based, NIH3T3, dose retest, confirmation (AID 2382); format: functional;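 also: NIH3T3 fibroblasts with HSF1-driven luciferase reporter stressed by proteasome inhibitor MG132; luminescence from HSF1-driven luciferase expression after 8 hours of MG132 stress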
T1 sequence (P38532 whole entry): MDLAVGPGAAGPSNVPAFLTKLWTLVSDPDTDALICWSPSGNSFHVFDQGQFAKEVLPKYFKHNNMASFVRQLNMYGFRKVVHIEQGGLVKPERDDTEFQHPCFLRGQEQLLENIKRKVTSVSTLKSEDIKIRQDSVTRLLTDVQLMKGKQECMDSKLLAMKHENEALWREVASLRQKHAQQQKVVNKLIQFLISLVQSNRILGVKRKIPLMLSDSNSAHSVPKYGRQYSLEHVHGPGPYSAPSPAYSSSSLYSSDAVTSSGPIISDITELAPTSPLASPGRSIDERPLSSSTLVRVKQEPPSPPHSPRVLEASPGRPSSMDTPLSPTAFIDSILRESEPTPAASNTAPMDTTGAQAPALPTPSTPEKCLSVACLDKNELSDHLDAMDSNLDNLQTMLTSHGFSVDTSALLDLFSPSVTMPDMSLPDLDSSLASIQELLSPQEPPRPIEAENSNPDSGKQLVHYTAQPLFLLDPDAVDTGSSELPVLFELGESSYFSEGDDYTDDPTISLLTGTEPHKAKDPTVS

[2] = viability of uninfected HEp-2 cells – cell-based, HTS, cytotoxicity control for RSV inhibitor project, dose response (AID 2410); format: functional; settings: human respiratory syncytial virus
[3] = biological target: FAD-linked sulfhydryl oxidase ALR (Homo sapiens, UniProt P55789); test: ALR-catalysed DTT oxidation blockers – biochemical, H2O2 detection, luminescence, cherry-pick, dose response (AID 493248)
[4] = Trypanosoma cruzi growth suppression in host cells – NIH3T3 host cells, beta-gal luminescence, confirmation (AID 2044); format: functional, cell-based;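 also: intracellular parasites grown in NIH/3T3 mouse fibroblasts as host cells; luminescent beta-galactosidase reporter signal from transgenic T. cruzi replicating inside host cells; inhibitors lower the luminescence signal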
[5] = NIH3T3 cell viability loss – ATP luminescence, mouse fibroblasts, counter-screen, dose response (AID 2010); format: functional, cell-based;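 also: cells exposed to compound for about 90 hours before reading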
[6] = DRD fibroblast viability loss – cell-based, non-viral oncogenic, luminescence, dose response (AID 1934); format: functional; settings: Homo sapiens
[7] = tested on: BJ; test: BJ-TERT-LT-ST fibroblast viability loss – cell-based, RAS-independent, luminescence, dose response (AID 1935); format: functional; settings: Homo sapiens;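 also: BJ fibroblasts immortalized with TERT plus LT and ST oncogenes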
[8] = tested on: BJ; test: BJ-TERT fibroblast viability loss – cell-based, RAS-independent, luminescence, dose response (AID 1933); format: functional; settings: Homo sapiens
[9] = tested on: BJ; test: cells; format: functional, cell-based; settings: Homo sapiens
[10] = luciferase reporter signal suppression in cells – H4 neuroglioma cells, luminescence, dose response (AID 1990); format: functional, cell-based
[11] = biological target: T2, Streptokinase A (Streptococcus pyogenes serotype M1, UniProt P10520); test: viability-normalized secreted streptokinase activity reduction – plasminogen activation absorbance, OD405, dose response (AID 1914); format: functional, Streptococcus pyogenes M1 GAS;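 also: secreted streptokinase activity via plasminogen activation per viability signal from cell pellet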
T2 sequence (P10520 whole entry): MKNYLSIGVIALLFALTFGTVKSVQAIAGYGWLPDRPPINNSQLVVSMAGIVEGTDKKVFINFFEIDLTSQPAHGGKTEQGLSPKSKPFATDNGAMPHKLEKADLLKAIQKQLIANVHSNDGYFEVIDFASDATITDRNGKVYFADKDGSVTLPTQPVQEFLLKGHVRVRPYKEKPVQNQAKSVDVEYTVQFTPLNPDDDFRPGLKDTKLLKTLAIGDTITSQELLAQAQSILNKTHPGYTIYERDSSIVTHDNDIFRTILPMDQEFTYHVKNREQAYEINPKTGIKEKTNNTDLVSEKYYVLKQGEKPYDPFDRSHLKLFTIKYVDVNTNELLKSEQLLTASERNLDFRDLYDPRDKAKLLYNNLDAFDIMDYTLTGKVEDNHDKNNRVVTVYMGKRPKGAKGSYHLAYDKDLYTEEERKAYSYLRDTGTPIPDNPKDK

[12] = tested on: Streptococcus; test: GAS UMAA2166 growth inhibition – luminescence, BacTiterGlo, counter-screen for streptokinase expression inhibitor project, dose response (AID 1915); format: functional, organism-based;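 also: potency for reduction of bacterial viability or growth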
[13] = Luminescence Cell-Based Dose Response HTS to Identify Inhibitors of 5'UTR Stem-Loop Driven Prion Protein mRNA Translation in H4 Neuroglioblastoma Cells. [Related pubchem assays: 1827 (Project Summary), 1813 (Primary HTS)]; format: functional
[14] = biological target: T3, Cytochrome P450 1A2 (Homo sapiens, UniProt P05177);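 also: PubChem cytochrome P450 panel assay, CYP1A2 panel member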
T3 sequence (P05177 whole entry): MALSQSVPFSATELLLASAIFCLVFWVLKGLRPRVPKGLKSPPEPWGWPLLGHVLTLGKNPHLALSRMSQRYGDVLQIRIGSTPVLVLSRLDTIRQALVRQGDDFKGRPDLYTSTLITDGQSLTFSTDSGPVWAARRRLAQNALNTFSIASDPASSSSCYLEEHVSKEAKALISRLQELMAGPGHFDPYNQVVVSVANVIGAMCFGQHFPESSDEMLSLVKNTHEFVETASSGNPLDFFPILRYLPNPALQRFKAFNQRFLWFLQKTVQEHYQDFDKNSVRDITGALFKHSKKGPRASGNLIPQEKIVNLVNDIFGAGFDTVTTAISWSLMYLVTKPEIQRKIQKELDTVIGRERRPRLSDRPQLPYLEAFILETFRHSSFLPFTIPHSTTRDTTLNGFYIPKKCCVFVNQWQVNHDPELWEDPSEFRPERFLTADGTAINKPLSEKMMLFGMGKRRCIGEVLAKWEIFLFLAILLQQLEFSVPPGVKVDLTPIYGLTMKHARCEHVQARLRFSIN

[15] = alpha-synuclein stem-loop luciferase translation blockers – H4 neuroglioma cells, luminescence, confirmation (AID 1988); format: functional, cell-based
[16] = tested on: Streptococcus sp. 'group A'; test: Streptococcus pyogenes SK(-)GAS viability under kanamycin – luminescence, BacTiterGlo, confirmation, counter-screen for streptokinase expression inhibitor project, dose response (AID 1900); format: functional, organism-based
[17] = Luminescence Cell-Based Dose Retest to Confirm Inhibitors of Cancer Stem Cells. [Related pubchem assays (depositor defined):AID2717, AID2721]; format: functional; settings: Homo sapiens
[18] = tested on: H4; test: Luminescence Cell-Based Dose Response HTS to Identify Activators of 5'UTR Stem-Loop Driven Prion Protein mRNA Translation in H4 Neuroglioblastoma Cells. [Related pubchem assays: 1829 (Project Summary), 1814 (Primary HTS)]; format: functional; settings: Homo sapiens
[19] = Luminescence Cell-Based Dose Confirmation HTS to Identify Activators of 5'UTR Stem-Loop Driven Alpha-Synuclein mRNA Translation in H4 Neuroglioblastoma Cells. [Related pubchem assays: 1829 (Project Summary), 1814 (Primary HTS)]; format: functional
[20] = Luminescence Cell-Based Dose Response HTS to Identify Activators of Luciferase Translation or Activity in H4 […] Cells. [Related pubchem assays: 1829 (Project Summary), 1814 (Primary HTS)]; format: functional
[21] = biological target: Large T antigen (Simian virus 40, UniProt P03070); format: functional, Betapolyomavirus macacae;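 also: Confirmatory-stage PubChem screen for compounds that inhibit SV40 T antigen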
[22] = biological target: Cytochrome P450 2D6 (Homo sapiens, UniProt P10635);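 also: CYP2D6 member of a cytochrome P450 panel assay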
[23] = biological target: Cytochrome P450 2C19 (Homo sapiens, UniProt P33261); test: Cytochrome panel assay with activity outcomes. Panel member name: p450-cyp2c19 Compounds with AC50 equal or less than 10 uM are considered active; format: functional; settings: read-out: AC50
Sequence of Cytochrome P450 2C19 (P33261 whole entry): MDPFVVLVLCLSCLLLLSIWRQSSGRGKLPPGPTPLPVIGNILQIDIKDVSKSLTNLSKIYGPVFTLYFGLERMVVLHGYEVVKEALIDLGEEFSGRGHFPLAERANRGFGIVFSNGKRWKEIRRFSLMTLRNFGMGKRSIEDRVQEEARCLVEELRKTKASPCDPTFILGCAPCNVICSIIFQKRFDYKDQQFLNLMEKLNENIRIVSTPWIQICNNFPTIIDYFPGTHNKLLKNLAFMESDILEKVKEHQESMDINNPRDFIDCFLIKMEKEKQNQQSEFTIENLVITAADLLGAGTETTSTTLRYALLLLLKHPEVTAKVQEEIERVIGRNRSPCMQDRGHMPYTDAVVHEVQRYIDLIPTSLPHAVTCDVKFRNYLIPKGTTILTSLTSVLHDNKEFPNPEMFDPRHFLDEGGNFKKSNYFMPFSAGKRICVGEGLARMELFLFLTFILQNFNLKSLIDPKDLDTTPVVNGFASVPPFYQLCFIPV

Sequence of FAD-linked sulfhydryl oxidase ALR (P55789 whole entry): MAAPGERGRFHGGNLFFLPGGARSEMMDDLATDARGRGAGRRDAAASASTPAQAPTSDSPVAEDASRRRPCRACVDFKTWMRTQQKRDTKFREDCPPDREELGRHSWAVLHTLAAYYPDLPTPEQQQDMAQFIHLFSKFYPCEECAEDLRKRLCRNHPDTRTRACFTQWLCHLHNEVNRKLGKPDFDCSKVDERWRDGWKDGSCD
Sequence of Large T antigen (P03070 whole entry): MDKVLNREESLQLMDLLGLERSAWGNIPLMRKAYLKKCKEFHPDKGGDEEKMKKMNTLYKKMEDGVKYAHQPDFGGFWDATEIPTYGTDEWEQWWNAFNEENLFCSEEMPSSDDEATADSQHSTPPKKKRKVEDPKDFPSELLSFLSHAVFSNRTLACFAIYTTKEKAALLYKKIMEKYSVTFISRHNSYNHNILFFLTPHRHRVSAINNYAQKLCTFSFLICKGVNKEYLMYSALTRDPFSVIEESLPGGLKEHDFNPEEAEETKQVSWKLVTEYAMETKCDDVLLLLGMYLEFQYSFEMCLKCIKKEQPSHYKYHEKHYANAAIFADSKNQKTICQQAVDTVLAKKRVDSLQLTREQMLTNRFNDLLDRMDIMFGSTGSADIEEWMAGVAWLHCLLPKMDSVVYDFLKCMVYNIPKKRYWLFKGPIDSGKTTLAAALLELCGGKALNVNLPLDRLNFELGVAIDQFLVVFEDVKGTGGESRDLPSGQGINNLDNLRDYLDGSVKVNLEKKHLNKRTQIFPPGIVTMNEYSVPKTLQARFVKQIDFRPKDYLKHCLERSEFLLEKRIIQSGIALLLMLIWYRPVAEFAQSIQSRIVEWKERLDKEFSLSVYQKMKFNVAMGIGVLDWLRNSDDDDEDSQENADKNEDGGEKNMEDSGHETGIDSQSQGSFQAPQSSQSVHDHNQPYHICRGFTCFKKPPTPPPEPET
Sequence of Cytochrome P450 2D6 (P10635 whole entry): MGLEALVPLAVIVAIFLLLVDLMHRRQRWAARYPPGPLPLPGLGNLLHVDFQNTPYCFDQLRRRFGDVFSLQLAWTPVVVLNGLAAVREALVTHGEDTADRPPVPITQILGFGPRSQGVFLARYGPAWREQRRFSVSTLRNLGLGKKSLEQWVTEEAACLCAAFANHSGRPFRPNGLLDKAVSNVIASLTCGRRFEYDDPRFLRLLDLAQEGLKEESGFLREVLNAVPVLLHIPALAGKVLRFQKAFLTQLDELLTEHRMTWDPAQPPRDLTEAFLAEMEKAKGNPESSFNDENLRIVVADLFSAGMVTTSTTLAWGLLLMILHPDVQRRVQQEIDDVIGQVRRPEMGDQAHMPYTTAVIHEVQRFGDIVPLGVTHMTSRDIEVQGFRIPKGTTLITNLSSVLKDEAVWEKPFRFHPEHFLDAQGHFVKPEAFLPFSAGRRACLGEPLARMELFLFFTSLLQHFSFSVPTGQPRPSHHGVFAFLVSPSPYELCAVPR

Cn1cc(CCNC(=O)CC2C(=O)NCCN2Cc2cccc(Oc3ccccc3)c2)cn1 (centres undefined)
EC50 [1]: > 195 µM (not active)

CC(=O)N1c2ccc(S(=O)(=O)N3c4ccccc4CC3C)cc2CC1C (centres undefined)
CC50 [2]: 15.1 µM (active)

Cc1ccc(CN2CC(C(=O)Nc3ccc(C)cn3)CC2=O)cc1 (centres undefined)
EC50 [1]: > 195 µM (not active)

COc1ccc(NCc2ccc(OC)c(Cn3ccnc3)c2)c(OC)c1
AC50 [3]: 1.76 µM (active)
EC50 [4]: 0.588 µM (active)
EC50 [5]: > 60 µM (not active)

COc1cccc(CNc2ncc(C(=O)Nc3cc(OC)c(OC)c(OC)c3)c(C)n2)c1
EC50 [6]: 19.6 µM (inconclusive)
EC50 [7]: 17.9 µM (inconclusive)
EC50 [8]: > 150 µM (not active)
EC50 [9]: 46.7 µM (active)

Cc1ccccc1OCC(=O)NC(=S)Nc1ccc(Br)c(C)n1
EC50 [10]: 25.1 µM (active)
EC50 [11]: 57.1 µM (active)
EC50 [12]: > 150 µM (not active)
EC50 [13]: 21 µM (active)
AC50 [14]: 3.16 µM (inconclusive)
EC50 [15]: 14.2 µM (active)
EC50 [16]: > 150 µM (not active)

CNc1ccccc1C(C)(C)c1cc(-c2cc(C)cc(C)c2)no1
AC50 [17]: 13.3 µM (active)

Cc1cc(C(=O)N2CCCC(Nc3ccccc3)C2)c2ccc(F)cc2n1 (centres undefined)
AC50 [3]: 2.24 µM (active)

CC(C)C(=O)Nc1ccc2c(c1)nc1n2CCSC1
AC50 [3]: 0.245 µM (active)

CN(C)c1ccc(-c2nnc(S)n2-c2ccccc2)cc1
AC50 [3]: 64.6 µM (active)

Cc1cc(C(=O)CSc2ccccc2)cc(C)c1O
CC50 [2]: 49.6 µM (active)

Fc1cccc(-c2cc3nc4c(c(NCc5ccco5)n3n2)CCCC4)c1
AC50 [17]: 6.81 µM (active)

COC(=O)C1=C(c2cc3ccccc3o2)C[C@@H]2CC[C@H]1N2C(=O)N1CCCCC1
EC50 [6]: 3.8 µM (inconclusive)
EC50 [10]: > 120 µM (not active)
EC50 [7]: 20.9 µM (active)
EC50 [13]: 12.1 µM (active)
EC50 [8]: 4.58 µM (active)
EC50 [9]: 28.8 µM (active)
EC50 [15]: 10.5 µM (active)

O=Cc1c(N2CCN(c3ccccc3)CC2)nc2ccccn2c1=O
AC50 [3]: 3.72 µM (active)
EC50 [18]: > 120 µM (not active)
EC50 [19]: > 120 µM (not active)
EC50 [20]: 17.8 µM (active)

O=C(NN=C1CCCCCCCCCCC1)c1ccccc1F
EC50 [1]: > 195 µM (not active)

CN(C)c1ccc(CNS(=O)(=O)c2ccc3c(c2)NC(=O)CS3)cc1
AC50 [3]: 7.37 µM (active)

COc1cc(SC)ccc1C(=O)N1CCN(c2ccc(O)cc2)CC1
AC50 [3]: 0.68 µM (active)
IC50 [21]: 5.95 µM (active)

Cc1cc2nc(SCCOC(=O)Nc3cccc(Cl)c3)nc(C)c2cc1C
CC50 [2]: 32.2 µM (active)

CNc1nnc(-c2cccc(N(C)C)c2)s1
AC50 [3]: 0.046 µM (active)

C=CCn1c(SCc2c(C)noc2C)nc2sc3c(c2c1=O)CCC(C)C3 (centres undefined)
EC50 [6]: 9.03 µM (active)
EC50 [7]: > 150 µM (inconclusive)
EC50 [8]: 23.8 µM (active)
EC50 [9]: 4.12 µM (inconclusive)

O=C(O)c1ccccc1C(=O)Nc1ccc(Nc2ccc([N+](=O)[O-])cc2[N+](=O)[O-])cc1
AC50 [3]: 3.88 µM (active)

Cc1ccc2nc(O)c(CN(c3cccc(C)c3C)S(=O)(=O)c3ccccc3)cc2c1
EC50 [6]: 69.9 µM (active)
EC50 [7]: > 150 µM (not active)
EC50 [8]: 78.2 µM (active)
EC50 [9]: 46.6 µM (active)

COc1ccc(NC(S)=Nc2ccc(Oc3ccccc3)cc2)cc1
EC50 [1]: > 195 µM (not active)

C[C@@H]1CCC(=O)N(CC[C@H](Sc2ccc(Br)cc2)c2ccccc2)CC1
AC50 [17]: 5.03 µM (active)

O=C(Nc1ccc(Nc2ccccc2)cc1)c1cccc(F)c1
AC50 [17]: 3.9 µM (active)

COCCCn1c2nc3ccccc3nc2c2c(=O)n(Cc3ccc(Cl)cc3)cnc21
CC50 [2]: > 50 µM (active)

Cc1cc(C)n(CCc2nc(-c3ccco3)cs2)n1
AC50 [3]: 4.56 µM (active)
IC50 [21]: 65.6 µM (active)

COc1ccc(CCNC(=O)CN2CCN(Cc3ccccc3F)C2=O)cc1OC
EC50 [1]: > 195 µM (not active)

NC1=NC(c2c[nH]nc2-c2cccc(F)c2)n2c(nc3ccccc32)N1 (centres undefined)
EC50 [1]: 27.5 µM (active)

S=C(Sc1ccc(Cl)cc1)Sc1ccc(Cl)cc1
EC50 [6]: 9.25 µM (active)
EC50 [7]: 13.1 µM (inconclusive)
EC50 [8]: 3.4 µM (inconclusive)
EC50 [9]: > 150 µM (inconclusive)

CCOC(=O)c1sc(NC(=O)c2ccccc2OC)nc1C
EC50 [6]: 14.7 µM (active)
EC50 [7]: > 150 µM (inconclusive)
EC50 [8]: 22.3 µM (active)
EC50 [9]: 22.8 µM (active)

Cc1cccc2c1NC(=O)/C2=C\C(=O)c1cccs1
AC50 [17]: 5.12 µM (active)

Cc1cccc(NC(=S)N/N=C/c2c[nH]c3ccccc23)c1
AC50 [17]: 0.704 µM (active)

Cc1ccc(-c2nnc(SCC(=O)N/N=C/c3c(C)nn(-c4ccccc4)c3C)n2-c2ccc(C)cc2)cc1
CC50 [2]: 20.5 µM (active)

COc1ccc(/C=N/NC(=O)c2cc(-c3cccn3C)[nH]n2)cc1OC
EC50 [1]: > 195 µM (not active)

COc1cc(/C=N\Nc2nc3ccccc3[nH]2)cc(OC)c1OC
AC50 [3]: 0.997 µM (active)
AC50 [22]: 17.8 µM (inconclusive)
AC50 [23]: 17.8 µM (inconclusive)

Cc1ccc(-c2nnc(SCC(=O)N/N=C/c3c(C)nn(-c4ccccc4)c3C)n2-c2ccccc2)cc1
CC50 [2]: 17.2 µM (active)

Clc1cccc(Nc2nc(-c3ccncc3)cs2)c1
AC50 [17]: 3.5 µM (active)
EC50 [4]: 0.714 µM (active)
EC50 [5]: 5.87 µM (active)

COc1ccc(Nc2cc(C)c3ccc(O)cc3n2)cc1
CC50 [2]: 11.7 µM (active)

O=C(O)Cc1cc(I)c(Oc2ccc(O)c(I)c2)c(I)c1 [TIRATRICOL]
CC50 [2]: 13 µM (active)
AC50 [14]: 12.6 µM (inconclusive)
